According to patent US20250144067A1, “PERSONALIZED STARVATION THERAPY FOR CANCER” (Faeth Therapeutics, Inc., priority 2021, published 2025):
Where a name gives a salt, the structure may show the parent alone. Read-outs that look alike come from different tables or passages of the source.

What was measured:
[1] = test system: NCI-H292 lung cancer cells; experiment: FDA drug screening, complete media vs cholesterol-free media with simvastatin (TABLE 2); format: cell-based, human
[2] = test system: NCI-H292 lung cancer cells; experiment: FDA drug screening, complete media vs cholesterol-free media without statin (TABLE 1); format: cell-based, human
[3] = NCI-H292 cells, FDA drug library screen, cholesterol-free media with simvastatin 0.04 μM
[4] = NCI-H292 cells, FDA drug library screen, complete media
[5] = complete media minus cholesterol-free media + simvastatin, >0 enhanced anti-cancer activity, about 0 neutral, <0 antagonist
[6] = NCI-H292 cells, cholesterol-free media without statin, FDA drug library screen
[7] = NCI-H292 cells, complete media, FDA drug library screen
[8] = complete vs cholesterol-free media, >0 enhanced anti-cancer activity, about 0 neutral, <0 antagonist
[9] = complete media vs cholesterol-free media + simvastatin (0.04 μM), >0 enhanced anti-cancer activity, about 0 neutral, <0 antagonist
[10] = Complete minus Cholesterol-free, greater than 0 enhanced anti-cancer activity, about 0 neutral, below 0 antagonists
[11] = NCI-H292 cells in cholesterol-free media without statin
[12] = NCI-H292 cells in complete media
[13] = NCI-H292 cells, cholesterol-free media without statin
[14] = complete vs cholesterol-free media, greater than 0 enhanced anti-cancer activity, about 0 neutral, below 0 antagonists
[15] = NCI-H292 cells, cholesterol-free media with simvastatin 0.04 μM, cell growth value in FDA drug screen
[16] = NCI-H292 cells, complete media, cell growth value in FDA drug screen
[17] = NCI-H292 cells, drug in cholesterol-free media with simvastatin 0.04 μM
[18] = NCI-H292 cells, drug in complete media
[19] = Complete minus Cholesterol-free, >0 enhanced anti-cancer activity, about 0 neutral, <0 antagonist
[20] = NCI-H292 cells, FDA library drug in cholesterol-free media with simvastatin 0.04 μM
[21] = NCI-H292 cells, FDA library drug in complete media
[22] = Complete minus Cholesterol-free, greater than 0 enhanced anti-cancer activity, about 0 neutral, below 0 antagonist
[23] = NCI-H292 cells, FDA drug library screen, cholesterol-free media without statin
[24] = NCI-H292 cells, cholesterol-free media with simvastatin 0.04 μM, FDA drug library screen (TABLE 2)
[25] = NCI-H292 cells, complete media, FDA drug library screen (TABLE 2)

## CC[C@]12CCCN3CCc4c(n(c5ccccc45)C(=O)C1)[C@@H]32 [Vinburnine]
[1]; [3]
  Cholesterol-free media + simvastatin (0.04 μM): 1.049
[1]; [4]
  Complete Media: 1.235
[1]; [5]
  Difference: 0.19
[2]; [6]
  Cholesterol-free: 0.8229
[2]; [7]
  Complete: 1.424
[2]; [8]
  Difference: 0.60

## CCC1(c2ccccc2)C(=O)NCNC1=O [Primidone]
[1]; [3]
  Cholesterol-free media + simvastatin (0.04 μM): 0.9863
[1]; [4]
  Complete Media: 0.8914
[1]; [9]
  Difference: −0.09
[2]; [10]
  Difference: −0.48
[2]; [11]
  Cholesterol-free: 1.462
[2]; [12]
  Complete: 0.9788

## NC(=O)c1cc[n+](CC2=C(C(=O)O)N3C(=O)[C@@H](NC(=O)[C@@H](c4ccccc4)S(=O)(=O)[O-])[C@H]3SC2)cc1 [Cefsulodin (sodium)]
[1]; [3]
  Cholesterol-free media + simvastatin (0.04 μM): 1.191
[1]; [4]
  Complete Media: 1.113
[1]; [9]
  Difference: −0.08
[2]; [13]
  Cholesterol-free: 1.045
[2]; NCI-H292 cells, complete media
  Complete: 0.6569
[2]; [14]
  Difference: −0.39

## N#Cc1ccc2[nH]cc(CCCCN3CCN(c4ccc5oc(C(N)=O)cc5c4)CC3)c2c1 [Vilazodone]
[1]; [15]
  Cholesterol-free media + simvastatin (0.04 μM): 0.8049
[1]; [16]
  Complete Media: 0.9107
[1]; [5]
  Difference: 0.11
[2]; [6]
  Cholesterol-free: 0.8843
[2]; [7]
  Complete: 1.054
[2]; [8]
  Difference: 0.17

## C[C@H]1[C@@H](O)O[C@@H]2O[C@@]3(C)CC[C@H]4[C@H](C)CC[C@@H]1[C@@]24OO3 [Dihydroartemisinin]
[1]; [17]
  Cholesterol-free media + simvastatin (0.04 μM): 0.9193
[1]; [18]
  Complete Media: 0.7262
[1]; [9]
  Difference: −0.19
[2]; [19]
  Difference: 0.05
[2]; [6]
  Cholesterol-free: 0.5972
[2]; [7]
  Complete: 0.6489

## COc1ccccc1N1CCN(CCCNc2cc(=O)n(C)c(=O)n2C)CC1 [Urapidil (hydrochloride)]
[1]; [20]
  Cholesterol-free media + simvastatin (0.04 μM): 1.22
[1]; [21]
  Complete Media: 0.87
[1]; [9]
  Difference: −0.35
[2]; [19]
  Difference: −0.28
[2]; [13]
  Cholesterol-free: 1.01
[2]; NCI-H292 cells, complete media
  Complete: 0.7335

## CC[C@@]1(O)C(=O)OCc2c1cc1n(c2=O)Cc2cc3c(CN(C)C)c(O)ccc3nc2-1 [Topotecan (Hydrochloride)]
[1]; [3]
  Cholesterol-free media + simvastatin (0.04 μM): 0.1355
[1]; [4]
  Complete Media: 0.04638
[1]; [9]
  Difference: −0.09
[2]; [19]
  Difference: −0.03
[2]; [6]
  Cholesterol-free: 0.05524
[2]; [7]
  Complete: 0.02609

## OCCOCCN1CCN(C2=Nc3ccccc3Sc3ccccc32)CC1 [Quetiapine]
[1]; [15]
  Cholesterol-free media + simvastatin (0.04 μM): 0.8037
[1]; [16]
  Complete Media: 0.9281
[1]; [5]
  Difference: 0.12
[2]; [22]
  Difference: −0.09
[2]; [23]
  Cholesterol-free: 0.8483
[2]; [4]
  Complete: 0.7581

## Cc1c(O)cccc1C(=O)N[C@@H](CSc1ccccc1)[C@H](O)CN1C[C@H]2CCCC[C@H]2C[C@H]1C(=O)NC(C)(C)C [Nelfinavir]
[1]; [20]
  Cholesterol-free media + simvastatin (0.04 μM): 1.243
[1]; [21]
  Complete Media: 0.8828
[1]; [9]
  Difference: −0.36
[2]; [19]
  Difference: −0.25
[2]; [13]
  Cholesterol-free: 1.095
[2]; NCI-H292 cells, complete media
  Complete: 0.8463

## O=C1[C@H](CC[C@H](O)c2ccc(F)cc2)[C@@H](c2ccc(O)cc2)N1c1ccc(F)cc1 [Ezetimibe]
[1]; [15]
  Cholesterol-free media + simvastatin (0.04 μM): 1.247
[1]; [16]
  Complete Media: 1.268
[1]; [5]
  Difference: 0.02
[2]; [10]
  Difference: −0.66
[2]; [11]
  Cholesterol-free: 1.871
[2]; [12]
  Complete: 1.209

## CC(C)(C)C(=O)OCC(=O)[C@H]1CC[C@H]2[C@@H]3CCC4=CC(=O)CC[C@]4(C)[C@H]3CC[C@]12C [Desoxycorticosterone pivalate]
[1]
  Cholesterol-free media + simvastatin (0.04 μM): 1.728
  Complete Media: 1.762
  Difference: 0.03
[2]
  Cholesterol-free: 1.574
  Complete: 1.04
  Difference: −0.53

## CNC[C@H](O)[C@@H](O)[C@H](O)[C@H](O)CO.Nc1nc(-n2cc(C(=O)O)c(=O)c3cc(F)c(N4CC(O)C4)c(Cl)c32)c(F)cc1F [Delafloxacin (meglumine)]
[1]; [17]
  Cholesterol-free media + simvastatin (0.04 μM): 1.156
[1]; [18]
  Complete Media: 0.9953
[1]; [9]
  Difference: −0.16
[2]; [13]
  Cholesterol-free: 1.432
[2]; NCI-H292 cells, complete media
  Complete: 1.009
[2]; [14]
  Difference: −0.42

## NS(=O)(=O)c1cc(Cl)c(Cl)c(S(N)(=O)=O)c1 [Dichlorphenamide]
[1]; [24]
  Cholesterol-free media + simvastatin (0.04 μM): 1.117
[1]; [25]
  Complete Media: 1.073
[1]; complete media minus cholesterol-free media + simvastatin (0.04 μM), >0 enhanced anti-cancer activity, about 0 neutral, <0 antagonist
  Difference: −0.04
[2]; [22]
  Difference: −0.08
[2]; [23]
  Cholesterol-free: 1.046
[2]; [4]
  Complete: 0.9714

## O=C(O[C@@H]1C[C@@H]2C[C@H]3C[C@H](C1)N2CC3=O)c1c[nH]c2ccccc12 [Dolasetron (Mesylate hydrate)]
[1]; [3]
  Cholesterol-free media + simvastatin (0.04 μM): 1.31
[1]; [4]
  Complete Media: 1.817
[1]; [5]
  Difference: 0.51
[2]; [13]
  Cholesterol-free: 1.287
[2]; NCI-H292 cells, complete media
  Complete: 0.8444
[2]; [14]
  Difference: −0.44

## COc1cc2c(cc1OC)C1CC(=O)C(CC(C)C)CN1CC2 (stereo not drawn) [Tetrabenazine]
[1]; [17]
  Cholesterol-free media + simvastatin (0.04 μM): 1.249
[1]; [18]
  Complete Media: 1.01
[1]; [9]
  Difference: −0.24
[2]; [13]
  Cholesterol-free: 1.615
[2]; NCI-H292 cells, complete media
  Complete: 1.162
[2]; [14]
  Difference: −0.45

## COc1ccc2cc(CCC(C)=O)ccc2c1 [Nabumetone]
[1]; [20]
  Cholesterol-free media + simvastatin (0.04 μM): 1.525
[1]; [21]
  Complete Media: 1.112
[1]; [9]
  Difference: −0.41
[2]; [22]
  Difference: −0.18
[2]; [23]
  Cholesterol-free: 1.034
[2]; [4]
  Complete: 0.8533

## O=S(=O)(O)Oc1ccc(C(c2ccc(OS(=O)(=O)O)cc2)c2ccccn2)cc1 [Sodium Picosulfate]
[1]; [3]
  Cholesterol-free media + simvastatin (0.04 μM): 0.987
[1]; [4]
  Complete Media: 1.164
[1]; [5]
  Difference: 0.18
[2]; [13]
  Cholesterol-free: 1.414
[2]; NCI-H292 cells, complete media
  Complete: 1.043
[2]; [14]
  Difference: −0.37

## Nc1cc(F)ccc1NC(=O)c1ccc(CNC(=O)/C=C/c2cccnc2)cc1 [Tucidinostat]
[1]; [15]
  Cholesterol-free media + simvastatin (0.04 μM): 0.5739
[1]; [16]
  Complete Media: 0.6176
[1]; [5]
  Difference: 0.04
[2]; [10]
  Difference: −0.51
[2]; [11]
  Cholesterol-free: 1.245
[2]; [12]
  Complete: 0.7308

## CC(C)N1CCN(c2ccc(OCC3COC(Cn4cncn4)(c4ccc(Cl)cc4Cl)O3)cc2)CC1 (stereo not drawn) [Terconazole]
[1]; [3]
  Cholesterol-free media + simvastatin (0.04 μM): 0.6294
[1]; [4]
  Complete Media: 1.003
[1]; [5]
  Difference: 0.37
[2]; [6]
  Cholesterol-free: 1.052
[2]; [7]
  Complete: 1.158
[2]; [8]
  Difference: 0.11

## CCN(CC)C(=O)C1(c2ccccc2)CC1CN (stereo not drawn) [Milnacipran (hydrochloride)]
[1]; [24]
  Cholesterol-free media + simvastatin (0.04 μM): 1.626
[1]; [25]
  Complete Media: 1.564
[1]; complete media minus cholesterol-free media + simvastatin (0.04 μM), […]
  Difference: −0.06
[2]; [13]
  Cholesterol-free: 1.545
[2]; NCI-H292 cells, complete media
  Complete: 1.09
[2]; complete vs cholesterol-free media, […]
  Difference: −0.45

## CCC(c1ccccc1)c1c(O)c2ccccc2oc1=O (stereo not drawn) [Phenprocoumon]
[1]; [17]
  Cholesterol-free media + simvastatin (0.04 μM): 1.071
[1]; [18]
  Complete Media: 0.9061
[1]; [9]
  Difference: −0.16
[2]; [13]
  Cholesterol-free: 1.312
[2]; NCI-H292 cells, complete media
  Complete: 0.8729
[2]; [14]
  Difference: −0.44

## CCCCCCCCc1ccc(CCC(N)(CO)CO)cc1 [Fingolimod]
[1]; [3]
  Cholesterol-free media + simvastatin (0.04 μM): 1.233
[1]; [4]
  Complete Media: 1.097
[1]; [9]
  Difference: −0.14
[2]; [10]
  Difference: −0.48
[2]; [11]
  Cholesterol-free: 1.481
[2]; [12]
  Complete: 0.9982
